Assay results as given in the NIST ThermoML archive (doi:10.1021/je049609w).
Where “and” joins values, the source holds several entries; their conditions need not be identical. Equal values may be shown once.

Columns and labels:
[1] = refractive index (Na D-line) (dimensionless); details: 101.33 kPa, Liquid
[2] = 101 kPa, Liquid
[3] = refractive index (Na D-line) (dimensionless); xn = mol fraction of the nth substance listed; details: 101 kPa, Liquid
[4] = xn = mol fraction of the nth substance listed; details: 101 kPa, Liquid

Clc1ccccc1Cl [1,2-dichlorobenzene]
Details	mass density, 298.15 K [kg/m3]	mass density, 303.15 K [kg/m3]	mass density, 308.15 K [kg/m3]	refractive index, 298.15 K	refractive index, 303.15 K	refractive index, 308.15 K	speed of sound, 298.15 K [m/s]	viscosity, 298.15 K [mPa·s]	viscosity, 303.15 K [mPa·s]	viscosity, 308.15 K [mPa·s]
[1]	–	–	–	1.5499	1.5476	1.545	–	–	–	–
[2]	1300.9	1295.4	1289.7	–	–	–	1280	1.324	1.214	1.105

C1COCCO1 [1,4-dioxane]
Details	mass density, 298.15 K [kg/m3]	mass density, 303.15 K [kg/m3]	mass density, 308.15 K [kg/m3]	refractive index, 298.15 K	refractive index, 303.15 K	refractive index, 308.15 K	speed of sound, 298.15 K [m/s]	viscosity, 298.15 K	viscosity, 303.15 K	viscosity, 308.15 K [mPa·s]
[1]	–	–	–	1.4203	1.4164	1.4145	–	–	–	–
[2]	1028.6	1022.9	1017.2	–	–	–	1345	1.196 mPa·s and 1.195 mPa·s	1.102 mPa·s and 1.095 mPa·s	1.008

OCCCl [1-chloro-2-hydroxyethane]
Details	mass density, 298.15 K [kg/m3]	mass density, 303.15 K [kg/m3]	mass density, 308.15 K [kg/m3]	refractive index, 298.15 K	refractive index, 303.15 K	refractive index, 308.15 K	speed of sound, 298.15 K [m/s]	viscosity, 298.15 K [mPa·s]	viscosity, 303.15 K [mPa·s]	viscosity, 308.15 K [mPa·s]
[1]	–	–	–	1.4411	1.438	1.4326	–	–	–	–
[2]	1200.9	1192.5	1187.1	–	–	–	1358	3.104	2.669	2.347

CC(=O)N(C)C [N,N-dimethylethanamide]
Details	mass density, 298.15 K [kg/m3]	mass density, 303.15 K [kg/m3]	mass density, 308.15 K [kg/m3]	refractive index, 298.15 K	refractive index, 303.15 K	refractive index, 308.15 K	speed of sound, 298.15 K [m/s]	viscosity, 298.15 K [mPa·s]	viscosity, 303.15 K [mPa·s]	viscosity, 308.15 K [mPa·s]
[1]	–	–	–	1.4363	1.4342	1.432	–	–	–	–
[2]	946.8	942.1	937.5	–	–	–	1458	1.261	1.154	1.047

CC(=O)N(C)C [N,N-dimethylethanamide] + C1COCCO1
Details	mass density, 298.15 K [kg/m3]	mass density, 303.15 K [kg/m3]	mass density, 308.15 K [kg/m3]	refractive index, 298.15 K	refractive index, 303.15 K	refractive index, 308.15 K	speed of sound, 298.15 K [m/s]	viscosity, 298.15 K [mPa·s]	viscosity, 303.15 K [mPa·s]	viscosity, 308.15 K [mPa·s]
[3], x2 = 0	–	–	–	1.4363	1.4342	1.432	–	–	–	–
[3], x2 = 0.1121	–	–	–	1.4346	1.4324	1.4302	–	–	–	–
[3], x2 = 0.2162	–	–	–	1.4328	1.4306	1.4284	–	–	–	–
[3], x2 = 0.3203	–	–	–	1.431	1.4287	1.4264	–	–	–	–
[3], x2 = 0.4222	–	–	–	1.4293	1.4269	1.4246	–	–	–	–
[3], x2 = 0.5242	–	–	–	1.4275	1.4252	1.4228	–	–	–	–
[3], x2 = 0.6219	–	–	–	1.4259	1.4234	1.421	–	–	–	–
[3], x2 = 0.7198	–	–	–	1.4242	1.4226	1.4191	–	–	–	–
[3], x2 = 0.8157	–	–	–	1.4226	1.421	1.4174	–	–	–	–
[3], x2 = 0.9116	–	–	–	1.421	1.4195	1.4157	–	–	–	–
[4], x2 = 0	946.8	942.1	937.5	–	–	–	1458	1.261	1.154	1.047
[4], x2 = 0.1121	954.8	950.1	945.4	–	–	–	1447	1.255	1.149	1.043
[4], x2 = 0.2162	962.4	957.6	952.9	–	–	–	1436	1.248	1.144	1.039
[4], x2 = 0.3203	970	965.2	960.3	–	–	–	1424	1.242	1.138	1.035
[4], x2 = 0.4222	977.9	972.9	968	–	–	–	1413	1.235	1.133	1.031
[4], x2 = 0.5242	985.9	980.9	975.9	–	–	–	1401	1.228	1.128	1.027
[4], x2 = 0.6219	993.9	988.8	983.6	–	–	–	1390	1.222	1.123	1.023
[4], x2 = 0.7198	1002.1	996.8	991.6	–	–	–	1379	1.215	1.117	1.019
[4], x2 = 0.8157	1010.5	1005.3	999.8	–	–	–	1367	1.209	1.105	1.016
[4], x2 = 0.9116	1019.2	1013.7	1008.2	–	–	–	1356	1.202	1.099	1.012

CCCCO [butan-1-ol]
Details	mass density, 298.15 K [kg/m3]	mass density, 303.15 K [kg/m3]	mass density, 308.15 K [kg/m3]	refractive index, 298.15 K	refractive index, 303.15 K	refractive index, 308.15 K	speed of sound, 298.15 K [m/s]	viscosity, 298.15 K [mPa·s]	viscosity, 303.15 K [mPa·s]	viscosity, 308.15 K [mPa·s]
[1]	–	–	–	1.3983	1.3955	1.3937	–	–	–	–
[2]	805.8	802	798	–	–	–	1237	2.564	2.245	1.981

CCCCO [butan-1-ol] + C1COCCO1
x2 = 0
Details	mass density, 298.15 K [kg/m3]	mass density, 303.15 K [kg/m3]	mass density, 308.15 K [kg/m3]	refractive index, 298.15 K	refractive index, 303.15 K	refractive index, 308.15 K	speed of sound, 298.15 K [m/s]	viscosity, 298.15 K [mPa·s]	viscosity, 303.15 K [mPa·s]	viscosity, 308.15 K [mPa·s]
[3]	–	–	–	1.3983	1.3955	1.3937	–	–	–	–
[4]	805.8	802	798	–	–	–	1237	2.564	2.245	1.981

CCOC(=O)CC(=O)OCC [diethyl 1,3-propanedioate]
Details	mass density, 298.15 K [kg/m3]	mass density, 303.15 K [kg/m3]	mass density, 308.15 K [kg/m3]	refractive index, 298.15 K	refractive index, 303.15 K	refractive index, 308.15 K	speed of sound, 298.15 K [m/s]	viscosity, 298.15 K [mPa·s]	viscosity, 303.15 K [mPa·s]	viscosity, 308.15 K [mPa·s]
[1]	–	–	–	1.4132	1.4108	1.4085	–	–	–	–
[2]	1049.6	1044.2	1038.8	–	–	–	1304	1.941	1.755	1.602
